Laboratory results from article PMC11569205, “An allosteric inhibitor of RhoGAP class-IX myosins suppresses the metastatic features of cancer cells” (Nature Communications, 2024).
Read-outs that look alike come from different tables or passages of the source.

What was measured:
Rn myosin-9b (Myo9b) [1] = target: T1, Rn myosin-9b (Myo9b) (Rattus norvegicus, UniProt Q63358); experiment: biochemical; design: inhibition of myosin ATPase activity
T1 construct: motor domain construct
Source text: (§1) We set out to identify a myosin class-IX specific inhibitor by screening an in-house compound library comprising halogenated pseudilins and carbazole derivatives, developed to target the ATPase activity of myosins[47],[48]. […] Low micromolar concentrations inhibited Myo9 motor function substantially, reducing sliding velocity and motile fraction of actin filaments in a reproducible and reversible manner (Fig. 1G, H). Importantly, the motor properties of other tested myosins remained unaffected (Fig. 1G). Rabbit fast skeletal muscle heavy meromyosin (skHMM) was prepared as described in ref. [129]. All other myosins were purified from native tissue or recombinant from the following organismal sources: D. discoideum (Dd), O. coniculus (Oc), S. scrofa (Ss), R. norvegicus (Rn), C. elegans (Ce), H. sapiens (Hs). Motor domain constructs of myosin-2, myosin-5a–5b, Ce myosin-9/Rn myosin-9b, were prepared as described previously in refs. [126],[130]–[135]. Hs nonmuscle myosin-2A (NM2a) was purified from SF9 cells using the baculovirus expression system as described in ref. [130] (for more information see Supplementary Table 5). F-actin was prepared according to the protocol by Lehrer and Kerwar[136].

Dd myosin-2 (DdMyo2) [2] = target: T2, Dd myosin-2 (DdMyo2) (Dictyostelium discoideum, UniProt P08799); experiment: biochemical; design: inhibition of myosin ATPase activity
T2 construct: gene mhcA; motor domain
T2 sequence (P08799 2-762): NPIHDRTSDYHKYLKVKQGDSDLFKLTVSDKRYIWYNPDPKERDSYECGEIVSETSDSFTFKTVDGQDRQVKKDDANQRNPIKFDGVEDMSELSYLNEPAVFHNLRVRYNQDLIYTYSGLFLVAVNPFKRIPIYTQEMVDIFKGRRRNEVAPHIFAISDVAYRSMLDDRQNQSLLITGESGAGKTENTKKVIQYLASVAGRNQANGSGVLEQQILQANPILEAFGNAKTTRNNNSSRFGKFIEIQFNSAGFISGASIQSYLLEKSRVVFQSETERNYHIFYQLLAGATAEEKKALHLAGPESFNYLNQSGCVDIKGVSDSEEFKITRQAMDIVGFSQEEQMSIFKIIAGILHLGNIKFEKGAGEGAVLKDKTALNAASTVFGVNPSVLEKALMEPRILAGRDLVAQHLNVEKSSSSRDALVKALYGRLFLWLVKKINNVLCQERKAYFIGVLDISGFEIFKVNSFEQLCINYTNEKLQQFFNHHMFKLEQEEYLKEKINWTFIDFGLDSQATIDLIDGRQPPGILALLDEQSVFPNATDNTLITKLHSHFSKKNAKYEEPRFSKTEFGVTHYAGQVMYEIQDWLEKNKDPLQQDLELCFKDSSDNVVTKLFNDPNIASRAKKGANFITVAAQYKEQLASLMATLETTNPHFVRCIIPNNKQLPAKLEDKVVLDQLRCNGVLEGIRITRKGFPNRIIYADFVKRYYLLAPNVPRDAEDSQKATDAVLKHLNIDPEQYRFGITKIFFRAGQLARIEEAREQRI
Source text: as §1

DdMyo5b = target: T3, DdMyo5b (Dictyostelium discoideum, UniProt P54697); experiment: biochemical; design: binding affinity of compound to purified myosin (technique not given in the excerpts)
T3 construct: gene myoJ; motor domain
Source text: (§2) Structural elements responsible for communicating conformational changes along the myosin ATPase cycle, such as the relay helix, the strut loop, and the W-helix, which form a central hub in the myosin motor domain for effective force production, flank the inhibitor binding site (Fig. 1K). The site buries a total protein surface area of 302.9 Å^2. This pocket is not visible in ligand-free DdMyo2 pre-power stroke structures and only formed by rearrangements of the side chains of residues S266 (β7-loop), E467 (relay helix), and K587 (strut) upon binding of the carbazole (Supplementary Fig. 1A). The aromatic carbazole moiety interacts primarily through hydrophobic contacts with F466 (relay helix) and V630 (W-helix), as well as cation-π interactions with K423 (O-helix) (Supplementary Fig. 1B). Four hydrogen bonds stabilize the inhibitor in its binding position: S465 (relay helix) and K587 (strut loop) interact with the hydroxy group of the ligand, and S465 (relay helix) and the main chain of E487 (relay helix) bind to the nitrogen of the carbazole framework. […] Rabbit fast skeletal muscle heavy meromyosin (skHMM) was prepared as described in ref. [129]. All other myosins were purified from native tissue or recombinant from the following organismal sources: D. discoideum (Dd), O. coniculus (Oc), S. scrofa (Ss), R. norvegicus (Rn), C. elegans (Ce), H. sapiens (Hs). Motor domain constructs of myosin-2, myosin-5a–5b, Ce myosin-9/Rn myosin-9b, were prepared as described previously in refs. [126],[130]–[135]. Hs nonmuscle myosin-2A (NM2a) was purified from SF9 cells using the baculovirus expression system as described in ref. [130] (for more information see Supplementary Table 5). F-actin was prepared according to the protocol by Lehrer and Kerwar[136].

Dd myosin-2 (DdMyo2) [3] = target: T2, Dd myosin-2 (DdMyo2); experiment: biochemical; design: binding affinity of compound to purified myosin (technique not given in the excerpts)
Source text: as §2

Rn myosin-9b (Myo9b) [4] = target: T1, Rn myosin-9b (Myo9b); experiment: NADH-coupled basal and actin-activated ATPase assay; type: biochemical
Ce myosin-9 = target: T4, Ce myosin-9 (Caenorhabditis elegans, UniProt F0IWT2); experiment: NADH-coupled basal and actin-activated ATPase assay; in vitro actin motility; type: biochemical
T4 construct: gene hum-7; motor domain construct
Source text: NADH-coupled basal and actin-activated ATPase assay; in vitro actin motility on Ce myosin-9 | Inhibitory effect of adhibin on Cemyosin-9 and Rnmyosin-9b basal and actin-activated ATPase activities.

T1 sequence (Q63358 2-954): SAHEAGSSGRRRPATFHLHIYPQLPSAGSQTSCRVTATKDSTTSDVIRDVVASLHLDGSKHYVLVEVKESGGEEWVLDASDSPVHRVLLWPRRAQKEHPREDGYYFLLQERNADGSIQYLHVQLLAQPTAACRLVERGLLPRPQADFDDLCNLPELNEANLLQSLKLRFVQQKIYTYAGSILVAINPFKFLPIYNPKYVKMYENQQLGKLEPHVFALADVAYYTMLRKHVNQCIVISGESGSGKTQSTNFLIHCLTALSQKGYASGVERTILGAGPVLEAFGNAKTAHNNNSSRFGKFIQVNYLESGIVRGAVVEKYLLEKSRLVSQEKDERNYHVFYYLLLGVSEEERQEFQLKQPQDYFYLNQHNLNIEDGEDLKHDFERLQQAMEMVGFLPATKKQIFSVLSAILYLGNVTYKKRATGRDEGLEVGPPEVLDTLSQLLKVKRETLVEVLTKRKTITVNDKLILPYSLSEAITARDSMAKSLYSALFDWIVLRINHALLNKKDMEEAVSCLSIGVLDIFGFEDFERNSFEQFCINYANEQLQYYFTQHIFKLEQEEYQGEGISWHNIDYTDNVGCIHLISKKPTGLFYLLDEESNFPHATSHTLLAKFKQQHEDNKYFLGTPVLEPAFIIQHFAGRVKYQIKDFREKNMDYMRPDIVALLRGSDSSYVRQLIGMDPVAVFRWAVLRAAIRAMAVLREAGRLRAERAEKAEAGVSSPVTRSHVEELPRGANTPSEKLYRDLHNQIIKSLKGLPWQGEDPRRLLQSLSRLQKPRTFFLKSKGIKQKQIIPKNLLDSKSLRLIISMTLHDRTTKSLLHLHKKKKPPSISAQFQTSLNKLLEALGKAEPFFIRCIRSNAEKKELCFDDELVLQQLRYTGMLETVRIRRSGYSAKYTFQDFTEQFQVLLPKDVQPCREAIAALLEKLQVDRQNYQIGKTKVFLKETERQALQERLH
T3 sequence (P54697 whole entry, the tested form may be a part): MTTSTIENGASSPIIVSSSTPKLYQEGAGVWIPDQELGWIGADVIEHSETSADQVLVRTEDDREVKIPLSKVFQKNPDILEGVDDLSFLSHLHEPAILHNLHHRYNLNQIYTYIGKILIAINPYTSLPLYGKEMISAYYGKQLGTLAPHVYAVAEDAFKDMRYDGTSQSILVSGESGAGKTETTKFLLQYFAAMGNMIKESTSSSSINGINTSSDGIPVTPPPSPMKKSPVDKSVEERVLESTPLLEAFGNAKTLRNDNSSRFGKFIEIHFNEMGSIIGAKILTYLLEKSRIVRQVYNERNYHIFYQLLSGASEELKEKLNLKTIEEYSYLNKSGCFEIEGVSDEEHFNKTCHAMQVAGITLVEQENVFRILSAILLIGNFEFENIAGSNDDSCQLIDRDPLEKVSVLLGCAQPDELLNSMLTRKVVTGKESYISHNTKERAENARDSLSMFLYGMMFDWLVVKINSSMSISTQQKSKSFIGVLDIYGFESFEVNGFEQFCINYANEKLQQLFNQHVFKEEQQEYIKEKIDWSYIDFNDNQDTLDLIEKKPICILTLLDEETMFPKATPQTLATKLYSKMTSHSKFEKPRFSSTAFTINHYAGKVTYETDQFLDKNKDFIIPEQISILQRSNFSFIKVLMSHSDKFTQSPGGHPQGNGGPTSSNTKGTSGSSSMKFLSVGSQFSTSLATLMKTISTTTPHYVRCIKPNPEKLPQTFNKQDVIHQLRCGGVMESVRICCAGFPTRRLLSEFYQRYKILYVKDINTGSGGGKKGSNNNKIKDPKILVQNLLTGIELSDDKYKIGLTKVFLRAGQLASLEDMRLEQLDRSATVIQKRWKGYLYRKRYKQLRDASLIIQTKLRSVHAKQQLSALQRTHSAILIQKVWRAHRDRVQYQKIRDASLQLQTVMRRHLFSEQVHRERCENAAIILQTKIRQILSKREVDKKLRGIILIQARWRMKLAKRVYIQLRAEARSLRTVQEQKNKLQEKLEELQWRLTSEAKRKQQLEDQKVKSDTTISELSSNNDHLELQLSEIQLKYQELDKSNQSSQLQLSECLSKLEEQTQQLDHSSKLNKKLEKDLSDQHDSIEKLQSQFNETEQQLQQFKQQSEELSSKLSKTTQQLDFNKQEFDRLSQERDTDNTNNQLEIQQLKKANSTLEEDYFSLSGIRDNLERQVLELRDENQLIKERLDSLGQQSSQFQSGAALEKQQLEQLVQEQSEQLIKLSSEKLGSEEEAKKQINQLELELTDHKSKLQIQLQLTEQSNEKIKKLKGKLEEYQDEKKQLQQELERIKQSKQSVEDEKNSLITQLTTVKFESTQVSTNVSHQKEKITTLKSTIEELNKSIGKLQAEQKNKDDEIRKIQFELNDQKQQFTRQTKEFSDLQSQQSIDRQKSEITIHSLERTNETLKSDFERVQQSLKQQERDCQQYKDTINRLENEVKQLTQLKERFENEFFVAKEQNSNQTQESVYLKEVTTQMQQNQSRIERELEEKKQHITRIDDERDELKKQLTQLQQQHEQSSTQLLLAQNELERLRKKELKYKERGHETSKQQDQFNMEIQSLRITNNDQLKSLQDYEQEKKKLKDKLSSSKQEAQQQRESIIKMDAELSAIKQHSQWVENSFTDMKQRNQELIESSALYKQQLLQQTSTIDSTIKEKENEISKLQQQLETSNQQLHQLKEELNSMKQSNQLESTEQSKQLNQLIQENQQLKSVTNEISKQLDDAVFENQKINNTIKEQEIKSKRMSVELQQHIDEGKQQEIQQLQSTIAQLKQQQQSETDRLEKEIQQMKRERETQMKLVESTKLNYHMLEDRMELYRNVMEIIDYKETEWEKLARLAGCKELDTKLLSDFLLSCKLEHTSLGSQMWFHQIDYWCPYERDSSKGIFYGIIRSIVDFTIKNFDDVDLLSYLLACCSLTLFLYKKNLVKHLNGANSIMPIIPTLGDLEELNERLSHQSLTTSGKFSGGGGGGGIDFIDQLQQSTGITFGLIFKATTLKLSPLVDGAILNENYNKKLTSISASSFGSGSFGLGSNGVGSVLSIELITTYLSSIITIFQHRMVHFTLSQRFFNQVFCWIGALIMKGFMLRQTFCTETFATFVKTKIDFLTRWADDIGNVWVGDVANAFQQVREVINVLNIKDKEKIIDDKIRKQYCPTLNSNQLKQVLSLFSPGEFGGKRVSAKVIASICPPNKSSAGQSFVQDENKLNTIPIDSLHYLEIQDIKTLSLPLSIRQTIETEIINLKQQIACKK
T4 sequence (F0IWT2 entry or part of it): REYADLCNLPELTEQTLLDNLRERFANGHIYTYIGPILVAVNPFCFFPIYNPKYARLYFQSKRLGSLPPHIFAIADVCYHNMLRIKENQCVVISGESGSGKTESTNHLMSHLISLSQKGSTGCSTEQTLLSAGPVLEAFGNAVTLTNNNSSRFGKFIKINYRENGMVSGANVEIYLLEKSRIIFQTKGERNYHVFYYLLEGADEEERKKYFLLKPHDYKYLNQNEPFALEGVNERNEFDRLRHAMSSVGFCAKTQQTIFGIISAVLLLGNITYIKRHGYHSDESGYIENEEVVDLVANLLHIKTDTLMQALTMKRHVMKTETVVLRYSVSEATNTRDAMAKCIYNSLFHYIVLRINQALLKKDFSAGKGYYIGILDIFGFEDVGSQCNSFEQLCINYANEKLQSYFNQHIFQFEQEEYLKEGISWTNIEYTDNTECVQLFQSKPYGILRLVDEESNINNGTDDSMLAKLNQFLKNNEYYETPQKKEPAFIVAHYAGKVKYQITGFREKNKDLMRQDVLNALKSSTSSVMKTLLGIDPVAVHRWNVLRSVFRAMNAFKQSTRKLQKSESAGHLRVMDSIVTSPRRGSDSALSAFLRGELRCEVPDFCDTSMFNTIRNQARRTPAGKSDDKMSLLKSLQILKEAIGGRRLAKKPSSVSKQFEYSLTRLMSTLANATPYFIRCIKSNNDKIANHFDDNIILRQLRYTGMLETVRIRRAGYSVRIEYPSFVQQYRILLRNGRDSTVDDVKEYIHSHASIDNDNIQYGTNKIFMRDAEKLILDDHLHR

SMILES	IC50 (Rn myosin-9b (Myo9b) [1])	IC50 (Dd myosin-2 (DdMyo2) [2])	Kd (DdMyo5b)	Kd (Dd myosin-2 (DdMyo2) [3])	IC50 (Dd myosin-2 (DdMyo2) [2]; read-out: IC50)	IC50 (Rn myosin-9b (Myo9b) [4])	Kd (DdMyo5b; read-out: KD)	Kd (Dd myosin-2 (DdMyo2) [3]; read-out: KD)	IC50 (Ce myosin-9)
Cc1ccc2[nH]c3c(O)cc(Br)c(Br)c3c2c1 [compound 5, 3,4-dibromo-6-methyl-9H-carbazol-1-ol]	2 ± 0.3 µM	22.6 ± 7.5 µM	33.2 ± 5.2 µM	7.3 ± 4.1 µM	–	–	–	–	–
OCc1cc(Br)cc2c1[nH]c1ccc(Br)cc12 [compound 12, 3,6-dibromo-1-(hydroxymethyl)carbazole]	–	–	–	–	37.7 ± 9.4 µM	2.5 ± 0.2 µM	1.5 ± 0.5 µM	14.9 ± 3.2 µM	2.6 ± 0.2 µM
